Measurements taken from PubChem BioAssay (NCI).
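Following 48 hours of exposure in 96-well plates, responses at five concentrations were used to interpolate endpoints linearly. The concentration for full growth arrest is given as TGI.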

Key:
Test in all cases: NCI tumour cell line growth inhibition, 48 h
LOX IMVI melanoma = test system: LOX IMVI melanoma
NCI-H23 lung = test system: NCI-H23 lung
K-562 leukemia = test system: K-562 leukemia
NCI-H460 lung = test system: NCI-H460 lung
SF-295 CNS = test system: SF-295 CNS
786-0 renal = test system: 786-0 renal
M14 melanoma = test system: M14 melanoma
TK-10 renal = test system: TK-10 renal
CCRF-CEM leukemia = test system: CCRF-CEM leukemia
COLO 205 colon = test system: COLO 205 colon
IGROV1 ovarian = test system: IGROV1 ovarian
RPMI-8226 leukemia = test system: RPMI-8226 leukemia
SN12C renal = test system: SN12C renal
OVCAR-8 ovarian = test system: OVCAR-8 ovarian
HL-60(TB) leukemia = test system: HL-60(TB) leukemia
U251 CNS = test system: U251 CNS
SK-MEL-28 melanoma = test system: SK-MEL-28 melanoma
MALME-3M melanoma = test system: MALME-3M melanoma
T-47D breast = test system: T-47D breast

Structure (SMILES) | TGI (LOX IMVI melanoma) [µM] | TGI (NCI-H23 lung) [µM] | TGI (K-562 leukemia) [µM] | TGI (NCI-H460 lung) [µM] | TGI (SF-295 CNS) [µM] | TGI (786-0 renal) [µM] | TGI (M14 melanoma) [µM] | TGI (TK-10 renal) [µM] | TGI (CCRF-CEM leukemia) [µM] | TGI (COLO 205 colon) [µM] | TGI (IGROV1 ovarian) [µM] | TGI (RPMI-8226 leukemia) [µM] | TGI (SN12C renal) [µM] | TGI (OVCAR-8 ovarian) [µM] | TGI (HL-60(TB) leukemia) [µM] | TGI (U251 CNS) [µM] | TGI (SK-MEL-28 melanoma) [µM] | TGI (MALME-3M melanoma) [µM] | TGI (T-47D breast) [µM]
Cc1ccccc1NC(=O)Cc1csc(N=Nc2c(O)[nH]c3ccccc23)n1 | > 100 | > 100 | > 100 | > 100 | 38 | > 100 | > 100 | > 100 | > 100 | > 100 | > 100 | > 100 | > 100 | 43.1 | 62.1 | > 1 | > 1 | > 100 | –
O=c1[nH]c2ccc([N+](=O)[O-])cc2nc1/C=C(\O)c1ccccc1 | – | 73.3 | > 100 | 16.5 | > 100 | 20.6 | > 100 | 14.8 | > 100 | > 100 | > 100 | – | 59.5 | 49.4 | – | 30.3 | – | > 100 | > 100
CCn1c2ccccc2c2cc(Nc3cc(C)[nH]c(=O)n3)ccc21 | – | > 100 | > 100 | > 100 | > 100 | > 100 | > 100 | > 100 | – | > 100 | – | – | > 100 | > 100 | – | > 100 | > 100 | > 100 | > 100
O=c1[nH]nc(-c2ccccc2)n1-n1cnnc1 | > 100 | > 100 | > 100 | > 100 | > 100 | > 100 | > 100 | > 100 | > 100 | > 100 | > 100 | > 100 | > 100 | > 100 | – | > 100 | – | > 100 | > 100
CCOC(=O)/C=C/[C@@H](CC)O[Si](C(C)C)(C(C)C)C(C)C | > 100 | > 100 | > 100 | > 100 | > 100 | > 100 | – | > 100 | > 100 | > 100 | > 100 | 94.6 | – | > 100 | – | > 100 | – | > 100 | > 100
Cc1csc(-n2c(C)nc3cc(Cl)ccc3c2=O)n1 | > 100 | > 100 | > 100 | > 100 | > 100 | > 100 | > 100 | > 100 | > 100 | > 100 | > 100 | – | > 100 | > 100 | > 100 | > 100 | > 100 | – | –
CC/C(=C\c1ccc(OC)cc1)c1ccc(OC)cc1 | > 100 | > 100 | > 100 | > 100 | > 100 | > 100 | > 100 | > 100 | > 100 | > 100 | > 100 | > 100 | > 100 | > 100 | – | > 100 | – | > 100 | –
Cc1ccc(/C=C2/N=C(N/N=C\c3ccccc3)NC2=O)cc1 | > 100 | > 100 | > 100 | > 100 | > 100 | 55.6 | 85.7 | > 100 | – | > 100 | > 100 | 48.3 | > 100 | > 100 | – | 89.6 | > 100 | > 100 | > 100
O=c1c2ccccc2nc(-c2ccccc2)n1NC(=S)Nc1cccc(Cl)c1 | > 100 | > 100 | > 100 | > 100 | > 100 | > 100 | > 100 | > 100 | > 100 | > 100 | > 100 | > 100 | > 100 | > 100 | > 100 | > 100 | > 100 | > 100 | –
C=C1C(=O)OC2C3OC(C)(CCC(O)C3COC(C)=O)CC(OC(=O)/C(=C/C)COC(C)=O)C12 (configuration not stated) | 0.342 | 2.93 | 6.42 | 2.22 | 22.3 | 0.394 | 1.01 | 0.562 | 0.269 | 0.246 | 2.85 | 0.339 | 1.98 | 20 | – | 2.88 | 0.431 | 0.0763 | 0.424
COc1ccc2c([nH]c3c(O)c(-c4c(C)cc5c([nH]c6c(CC=C(C)C)c(OC)ccc65)c4O)c(C)cc32)c1CC=C(C)C | > 100 | > 100 | > 100 | > 100 | > 100 | > 100 | > 100 | > 100 | > 100 | > 100 | > 100 | > 100 | > 100 | > 100 | > 100 | > 100 | > 100 | > 100 | –
CN(C)CN(C)c1nc(N(C)C)nc(N(C)CN(C)C)n1 | 55.1 | 95.8 | 67.3 | > 100 | > 100 | > 100 | > 100 | > 100 | 61.1 | 61.6 | > 100 | 67.2 | > 100 | > 100 | 36.4 | > 100 | 83.6 | – | –
O=C1C(c2c(O)[nH]c3ccc(S(=O)(=O)NCCO)cc23)=Nc2ccccc21 | > 100 | > 100 | 69.4 | > 100 | > 100 | 28.9 | > 100 | 42.4 | > 100 | > 100 | > 100 | > 100 | > 100 | > 100 | – | 12.9 | > 100 | > 100 | 50.4
